Source: patent US20230278972A1, “SUBSTITUTED HALOALKYL SULFONANILIDE HERBICIDES” (FMC Corporation, priority 2020, published 2023)

Legend:
Assay type in all cases: in vivo
[1] = test system: ragweed (common ragweed, Ambrosia artemisiifolia); assay: Test A1 preemergence, ragweed
Summary of the method: (§1)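 Both timings started from seed in a loam-sand blend. Preemergence pots got a directed soil application immediately; postemergence pots were sprayed when seedlings had one or two leaves and stood 2–10 cm. Each compound was prepared in a non-phytotoxic solvent plus surfactant.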

[2] = test system: Foxtail, Giant (giant foxtail, Setaria faberi); assay: Test A1 postemergence, Foxtail, Giant; conditions: for Plant response rating, Foxtail, Giant: Postemergence; for Foxtail, Giant plant response rating: postemergence
Summary of the method: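 Herbicidal response was scored on plants treated either preemergence, by directed spray onto soil of a loam–sand blend after sowing, or postemergence on potted plants at the one- to two-leaf stage, 2–10 cm high. Test chemicals were carried in a non-phytotoxic solvent mix with surfactant.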

[3] = test system: Ryegrass, Italian (Italian ryegrass, Lolium multiflorum); assay: Test A1 preemergence, Ryegrass, Italian
Summary of the method: as §1

soybean (Glycine max) = assay: Test A1 preemergence, soybean
Summary of the method: as §1

[4] = 31 g ai/ha, 0 to 100 scale (0 no effect, 100 complete control)
[5] = 125 g ai/ha, 0 to 100 scale, 0 no effect, 100 complete control
[6] = 31 g ai/ha, 0 to 100 scale (0 no effect, 100 complete control), 10 days
[7] = 125 g ai/ha, 0 to 100 scale (0 no effect, 100 complete control), 10 days
[8] = 500 g ai/ha, 0 to 100 scale (0 no effect, 100 complete control)
[9] = 125 g ai/ha, 0 to 100 scale (0 no effect, 100 complete control)

| Compound | Plant response rating, Ragweed [1, 4] | Plant response rating, Ragweed [1, 5] | Plant response rating, Foxtail, Giant [2, 6] | Plant response rating, Foxtail, Giant ([2]; 125 g ai/ha, 0 to 100 scale) | Plant response rating, Ryegrass, Italian [3, 4] | Plant response rating, Ryegrass, Italian [3, 5] | Plant response rating, Soybean (soybean (Glycine max); [4]) | Plant response rating, Soybean (soybean (Glycine max); [5]) | Foxtail, Giant plant response rating [2, 4] | Plant response rating, Foxtail, Giant [2, 7] | Plant response rating, Ragweed [1, 8] | Plant response rating, Foxtail, Giant ([2]; 500 g ai/ha, 0 to 100 scale) | Plant response rating, Ryegrass, Italian [3, 8] | Plant response rating, Soybean (soybean (Glycine max); [8]) | Plant response rating, Ragweed [1, 9] | Plant response rating, Ryegrass, Italian [3, 9] | Plant response rating, Soybean (soybean (Glycine max); [9]) |
| --- | --- | --- | --- | --- | --- | --- | --- | --- | --- | --- | --- | --- | --- | --- | --- | --- | --- |
| Cc1c(NS(=O)(=O)C(F)(F)F)cc(C(=O)N2CCSCC2)c(C)c1C [Compound 283] | 0 | 40 | 80 | 90 | 0 | 0 | 0 | 50 |  |  |  |  |  |  |  |  |  |
| Cc1cc(C)c(N2CCC3(CCC(C(F)(F)F)CC3)C2=O)cc1NS(=O)(=O)C(F)(F)F (centres unmarked) [Compound 400] | 70 | 90 |  |  | 60 | 90 | 50 | 50 | 0 | 0 |  |  |  |  |  |  |  |
| Cc1c(C2=NOC3(CCCC3)C2)cc(N(COC(=O)C(C)(C)C)S(=O)(=O)C(F)(F)F)c(C)c1C [Compound 382] | 0 | 0 |  |  | 30 | 50 | 0 | 0 | 0 | 50 |  |  |  |  |  |  |  |
| Cc1cc(C)c(N2CCC3(CCC(C)CC3)C2=O)cc1NS(=O)(=O)C(F)(F)F (centres unmarked) [Compound 402] | 20 | 50 |  |  | 90 | 100 | 10 | 80 | 0 | 20 |  |  |  |  |  |  |  |
| Cc1cc(C)c(N(COC(=O)C(C)(C)C)S(=O)(=O)C(F)(F)F)cc1N1CCC2(CCC(F)(F)CC2)C1=O [Compound 397] |  | 90 |  |  |  | 100 |  | 40 |  | 20 | 90 | 70 | 100 | 80 |  |  |  |
| Cc1cc(C)c(C2=NOC(C(C)C)C2)cc1NS(=O)(=O)C(F)(F)F (centres unmarked) [Compound 381] | 0 | 0 |  |  | 50 | 90 | 0 | 50 | 0 | 50 |  |  |  |  |  |  |  |
| CCOc1cccc2c1C(=O)N(c1cc(N(COC(=O)C(C)(C)C)S(=O)(=O)Cl)c(C)cc1C)C2 [Compound 414] |  |  |  |  |  |  |  |  | 0 | 0 |  |  |  |  | 20 | 30 | 0 |
| COc1cccc2c1C(=O)N(c1cc(N(COC(=O)C(C)(C)C)S(=O)(=O)Cl)c(C)cc1C)C2 [Compound 413] |  |  |  |  |  |  |  |  | 0 | 10 |  |  |  |  | 90 | 20 | 50 |
| Cc1ccc(C2=NOC3CCCC23)cc1NS(=O)(=O)C(F)(F)F (centres unmarked) [Compound 377] | 0 | 0 |  | 0 | 0 | 40 | 0 | 0 | 0 |  |  |  |  |  |  |  |  |
| C#CCN(C)C(=O)c1cc(NS(=O)(=O)C(F)(F)F)c(C)c(C)c1C [Compound 368] | 50 | 80 |  | 90 | 50 | 100 | 90 | 100 | 80 |  |  |  |  |  |  |  |  |
| CCOC(=O)N(c1cc(C(=O)N2CCSCC2)c(C)c(C)c1C)S(=O)(=O)C(F)(F)F [Compound 286] | 0 | 10 | 80 | 80 | 0 | 0 | 0 | 40 |  |  |  |  |  |  |  |  |  |
| Cc1cc(Cl)c(NS(=O)(=O)C(F)(F)F)cc1N1CC2(CCCCC2)OC1=O [Compound 394] | 40 | 90 |  |  | 40 | 100 | 50 | 60 | 0 | 50 |  |  |  |  |  |  |  |
| Cc1cc(C)c(N(COC(=O)C(C)(C)C)S(=O)(=O)C(F)(F)F)cc1N1CCC2(CCC(C)CC2)C1=O (centres unmarked) [Compound 401] | 0 | 10 |  |  | 0 | 30 | 0 | 0 | 0 | 60 |  |  |  |  |  |  |  |
